Measured values: the supplement of paper PMC10307832

What was measured:
Experiment in all cases: relative viability (nuclei count vs DMSO), 5 days (fraction); higher = more cells survive
A549 = tested on: A549
Procedure, shortened: (§1)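 Five library-drug doses in √10 steps were combined with a fixed anchor-drug dose, or a single drug was given alone, by pin tool to lung cancer cell lines in 1536-well plates the day after seeding. Nuclei were stained and counted after 5 days. Relative viability is the nuclei count in treated wells over that in vehicle wells, taken as the median of duplicate plates.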

LCLC-97TM1 = tested on: LCLC-97TM1
Procedure, shortened: as §1

NCI-H1355 = tested on: NCI-H1355
Procedure, shortened: as §1

NCI-H1648 = tested on: NCI-H1648
Procedure, shortened: as §1

NCI-H1993 = tested on: NCI-H1993
Procedure, shortened: as §1

NCI-H23 = tested on: NCI-H23
Procedure, shortened: as §1

NCI-H322M = tested on: NCI-H322M
Procedure, shortened: as §1

NCI-H596 = tested on: NCI-H596
Procedure, shortened: as §1

UMC-11 = tested on: UMC-11
Procedure, shortened: as §1

COc1cc2nccc(Oc3ccc(NC(=O)Nc4cc(C)on4)c(Cl)c3)c2cc1OC [Tivozanib] + Nc1ncn([C@H]2C[C@H](O)[C@@H](CO)O2)c(=O)n1 [Decitabine] (partner 2 µM)
relative viability (A549; first compound 0.005 µM): 0.207 | relative viability (A549; first compound 0.01581 µM): 0.225 | relative viability (A549; first compound 0.05 µM): 0.223 | relative viability (A549; first compound 0.1581 µM): 0.239 | relative viability (A549; first compound 0.5 µM): 0.225 | relative viability (LCLC-97TM1; first compound 0.005 µM): 0.215 | relative viability (LCLC-97TM1; first compound 0.01581 µM): 0.22 | relative viability (LCLC-97TM1; first compound 0.05 µM): 0.297 | relative viability (LCLC-97TM1; first compound 0.1581 µM): 0.221 | relative viability (LCLC-97TM1; first compound 0.5 µM): 0.19 | relative viability (NCI-H1355; first compound 0.005 µM): 0.318 | relative viability (NCI-H1355; first compound 0.01581 µM): 0.314 | relative viability (NCI-H1355; first compound 0.05 µM): 0.334 | relative viability (NCI-H1355; first compound 0.1581 µM): 0.333 | relative viability (NCI-H1355; first compound 0.5 µM): 0.363 | relative viability (NCI-H1648; first compound 0.005 µM): 0.467 | relative viability (NCI-H1648; first compound 0.01581 µM): 0.434 | relative viability (NCI-H1648; first compound 0.05 µM): 0.479 | relative viability (NCI-H1648; first compound 0.1581 µM): 0.451 | relative viability (NCI-H1648; first compound 0.5 µM): 0.496 | relative viability (NCI-H1993; first compound 0.005 µM): 0.658 | relative viability (NCI-H1993; first compound 0.01581 µM): 0.595 | relative viability (NCI-H1993; first compound 0.05 µM): 0.581 | relative viability (NCI-H1993; first compound 0.1581 µM): 0.469 | relative viability (NCI-H1993; first compound 0.5 µM): 0.592 | relative viability (NCI-H23; first compound 0.005 µM): 0.304 | relative viability (NCI-H23; first compound 0.01581 µM): 0.279 | relative viability (NCI-H23; first compound 0.05 µM): 0.3 | relative viability (NCI-H23; first compound 0.5 µM): 0.309 | relative viability (NCI-H322M; first compound 0.005 µM): 0.632 | relative viability (NCI-H322M; first compound 0.01581 µM): 0.55 | relative viability (NCI-H322M; first compound 0.05 µM): 0.762 | relative viability (NCI-H322M; first compound 0.1581 µM): 0.656 | relative viability (NCI-H322M; first compound 0.5 µM): 0.686 | relative viability (NCI-H596; first compound 0.005 µM): 0.975 | relative viability (NCI-H596; first compound 0.01581 µM): 0.994 | relative viability (NCI-H596; first compound 0.05 µM): 1.15 | relative viability (NCI-H596; first compound 0.5 µM): 1.03 | relative viability (UMC-11; first compound 0.005 µM): 0.59 | relative viability (UMC-11; first compound 0.01581 µM): 0.595 | relative viability (UMC-11; first compound 0.05 µM): 0.657 | relative viability (UMC-11; first compound 0.1581 µM): 0.478 | relative viability (UMC-11; first compound 0.5 µM): 0.425

Cc1sc2c(c1C)C(c1ccc(Cl)cc1)=N[C@@H](CC(=O)OC(C)(C)C)c1nnc(C)n1-2 [JQ1] + Nc1ncn([C@H]2C[C@H](O)[C@@H](CO)O2)c(=O)n1 [Decitabine] (partner 2 µM)
relative viability (A549; first compound 0.04 µM): 0.275 | relative viability (A549; first compound 0.1265 µM): 0.267 | relative viability (A549; first compound 0.4 µM): 0.378 | relative viability (A549; first compound 1.265 µM): 0.405 | relative viability (A549; first compound 4 µM): 0.252 | relative viability (LCLC-97TM1; first compound 0.04 µM): 0.231 | relative viability (LCLC-97TM1; first compound 0.1265 µM): 0.223 | relative viability (LCLC-97TM1; first compound 0.4 µM): 0.188 | relative viability (LCLC-97TM1; first compound 1.265 µM): 0.156 | relative viability (LCLC-97TM1; first compound 4 µM): 0.125 | relative viability (NCI-H1355; first compound 0.04 µM): 0.348 | relative viability (NCI-H1355; first compound 0.1265 µM): 0.342 | relative viability (NCI-H1355; first compound 0.4 µM): 0.337 | relative viability (NCI-H1355; first compound 1.265 µM): 0.319 | relative viability (NCI-H1355; first compound 4 µM): 0.249 | relative viability (NCI-H1648; first compound 0.04 µM): 0.497 | relative viability (NCI-H1648; first compound 0.1265 µM): 0.652 | relative viability (NCI-H1648; first compound 0.4 µM): 0.409 | relative viability (NCI-H1648; first compound 1.265 µM): 0.398 | relative viability (NCI-H1648; first compound 4 µM): 0.286 | relative viability (NCI-H1993; first compound 0.04 µM): 0.586 | relative viability (NCI-H1993; first compound 0.1265 µM): 0.636 | relative viability (NCI-H1993; first compound 0.4 µM): 0.553 | relative viability (NCI-H1993; first compound 1.265 µM): 0.538 | relative viability (NCI-H1993; first compound 4 µM): 0.475 | relative viability (NCI-H23; first compound 0.04 µM): 0.323 | relative viability (NCI-H23; first compound 0.1265 µM): 0.3 | relative viability (NCI-H23; first compound 0.4 µM): 0.303 | relative viability (NCI-H23; first compound 1.265 µM): 0.244 | relative viability (NCI-H23; first compound 4 µM): 0.211 | relative viability (NCI-H322M; first compound 0.04 µM): 0.631 | relative viability (NCI-H322M; first compound 0.1265 µM): 0.886 | relative viability (NCI-H322M; first compound 0.4 µM): 0.641 | relative viability (NCI-H322M; first compound 1.265 µM): 0.594 | relative viability (NCI-H322M; first compound 4 µM): 0.592 | relative viability (NCI-H596; first compound 0.04 µM): 1.04 | relative viability (NCI-H596; first compound 0.1265 µM): 0.978 | relative viability (NCI-H596; first compound 0.4 µM): 0.679 | relative viability (NCI-H596; first compound 1.265 µM): 0.611 | relative viability (NCI-H596; first compound 4 µM): 0.62 | relative viability (UMC-11; first compound 0.04 µM): 0.514 | relative viability (UMC-11; first compound 0.1265 µM): 0.468 | relative viability (UMC-11; first compound 0.4 µM): 0.328 | relative viability (UMC-11; first compound 1.265 µM): 0.294 | relative viability (UMC-11; first compound 4 µM): 0.309
